Measured values published in ChEMBL document CHEMBL1201862, “PubChem BioAssay data set” (2004).
The source made the active and inactive calls.

Tests used:
Paired box protein Pax-8 = Paired box protein Pax-8 (Homo sapiens, UniProt Q06710); test: inhibitors of PAX8-driven TPO luciferase reporter, dose response, RMG-I cells, cherry-pick (AID 687027); type: functional, cell-based;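 note: luciferase reporter driven by Pax8 target thyroperoxidase promoter measured by SteadyGlo luminescence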
[1] = non-specific cell cytotoxicity, dose response, cytotoxicity control for PAX8 inhibitor project, plate reader, dry powder samples (AID 743021); type: functional, cell-based
[2] = molecular target: Induced myeloid leukemia cell differentiation protein Mcl-1 (Homo sapiens, UniProt Q07820); type: functional
[3] = molecular target: Eukaryotic translation initiation factor 4E (Mus musculus, UniProt P63073); test: eIF4E–eIF4G protein interaction inhibitors, dose response, biochemical, TR-FRET (AID 855); type: functional;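 note: potency for disrupting eIF4E binding to eIF4GI seen as loss of FRET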
[4] = molecular target: T1, Carboxy-terminal domain RNA polymerase II polypeptide A small phosphatase 1 (Homo sapiens, UniProt Q9GZU7); test: inhibitors of CTDSP1, concentration-response testing, biochemical assay, absorbance-based, actives from ultra-high-throughput screening (AID 540297); type: functional
T1 sequence (Q9GZU7 whole entry): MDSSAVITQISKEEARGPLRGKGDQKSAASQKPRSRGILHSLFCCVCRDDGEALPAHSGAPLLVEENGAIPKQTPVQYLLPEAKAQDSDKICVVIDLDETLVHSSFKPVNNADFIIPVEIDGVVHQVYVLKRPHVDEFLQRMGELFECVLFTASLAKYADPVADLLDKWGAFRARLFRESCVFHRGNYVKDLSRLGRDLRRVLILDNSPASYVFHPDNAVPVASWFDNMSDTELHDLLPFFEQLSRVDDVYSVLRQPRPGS

Caspase-6 = molecular target: T2, Caspase-6 (Homo sapiens, UniProt P55212); test: human caspase-6 inhibitors, dose response, biochemical, VEID-R110 fluorescence, cherry-pick (AID 720632)
T2 sequence (P55212 whole entry): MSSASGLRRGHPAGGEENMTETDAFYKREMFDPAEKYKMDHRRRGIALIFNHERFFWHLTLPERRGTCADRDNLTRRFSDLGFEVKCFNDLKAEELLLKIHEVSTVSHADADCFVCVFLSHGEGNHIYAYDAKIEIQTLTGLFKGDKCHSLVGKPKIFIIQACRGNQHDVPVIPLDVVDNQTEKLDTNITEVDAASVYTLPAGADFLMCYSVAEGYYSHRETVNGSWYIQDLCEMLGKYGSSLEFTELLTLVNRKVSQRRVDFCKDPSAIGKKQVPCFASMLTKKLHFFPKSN

[5] = molecular target: Peroxisome proliferator-activated receptor gamma/Nuclear receptor coactivator 1 (Homo sapiens, UniProt P37231); test: TR-FRET dose response biochemical High Throughput Screening assay for agonists of the steroid receptor coactivator 1 (SRC-1) recruitment by the peroxisome proliferator-activated receptor gamma (PPAR gamma): non-selective agonists. [Related pubchem assays (depositor defined):AID1300, AID1808, AID504735, AID631]; type: protein assay
[6] = molecular target: Peroxisome proliferator-activated receptor gamma/Nuclear receptor coactivator 3 (Homo sapiens, UniProt P37231); test: TR-FRET dose response biochemical High Throughput Screening assay for agonists of the steroid receptor coactivator 3 (SRC-3) recruitment by the peroxisome proliferator-activated receptor gamma (PPAR gamma): non-selective agonists. [Related pubchem assays: 1301 (Confirmation screen.), 1048 (Primary screen.)]; type: functional
[7] = molecular target: Peroxisome proliferator-activated receptor gamma/Nuclear receptor coactivator 2 (Homo sapiens, UniProt P37231); test: TR-FRET dose response biochemical High Throughput Screening assay for agonists of the steroid receptor coactivator 2 (SRC-2) recruitment by the peroxisome proliferator-activated receptor gamma (PPAR gamma): non-selective agonists. [Related pubchem assays: 1297, 1032 ]; type: functional
Major prion protein = Major prion protein (Homo sapiens, UniProt P04156); type: functional, cell-based
Protein skinhead-1 = molecular target: T3, Protein skinhead-1 (Caenorhabditis elegans, UniProt P34707); type: functional
T3 sequence (P34707 whole entry): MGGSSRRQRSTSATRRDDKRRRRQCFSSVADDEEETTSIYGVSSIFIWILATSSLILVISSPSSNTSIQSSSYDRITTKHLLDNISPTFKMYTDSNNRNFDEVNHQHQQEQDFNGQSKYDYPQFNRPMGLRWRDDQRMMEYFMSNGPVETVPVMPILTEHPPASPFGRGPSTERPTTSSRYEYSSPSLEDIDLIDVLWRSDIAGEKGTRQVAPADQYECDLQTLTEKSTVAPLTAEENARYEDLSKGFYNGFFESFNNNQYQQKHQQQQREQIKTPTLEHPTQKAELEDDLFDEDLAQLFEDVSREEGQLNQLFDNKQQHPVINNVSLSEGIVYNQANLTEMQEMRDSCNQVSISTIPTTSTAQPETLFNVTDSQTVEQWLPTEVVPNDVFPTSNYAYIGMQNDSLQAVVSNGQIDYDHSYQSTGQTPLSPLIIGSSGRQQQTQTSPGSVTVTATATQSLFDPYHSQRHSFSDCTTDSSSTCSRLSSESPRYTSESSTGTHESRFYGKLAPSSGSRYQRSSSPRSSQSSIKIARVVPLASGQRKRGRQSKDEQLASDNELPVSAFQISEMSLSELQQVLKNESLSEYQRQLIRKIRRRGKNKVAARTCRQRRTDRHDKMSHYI

[8] = molecular target: T4, 1-phosphatidylinositol 4,5-bisphosphate phosphodiesterase gamma-1 (Homo sapiens, UniProt P19174); test: Counterscreen for inhibitors of phospholipase C isozymes (PLC-B3): Fluorescence-based biochemical high throughput dose response assay to identify inhibitors of phospholipase C isozymes (PLC-gamma1).
T4 sequence (P19174 whole entry): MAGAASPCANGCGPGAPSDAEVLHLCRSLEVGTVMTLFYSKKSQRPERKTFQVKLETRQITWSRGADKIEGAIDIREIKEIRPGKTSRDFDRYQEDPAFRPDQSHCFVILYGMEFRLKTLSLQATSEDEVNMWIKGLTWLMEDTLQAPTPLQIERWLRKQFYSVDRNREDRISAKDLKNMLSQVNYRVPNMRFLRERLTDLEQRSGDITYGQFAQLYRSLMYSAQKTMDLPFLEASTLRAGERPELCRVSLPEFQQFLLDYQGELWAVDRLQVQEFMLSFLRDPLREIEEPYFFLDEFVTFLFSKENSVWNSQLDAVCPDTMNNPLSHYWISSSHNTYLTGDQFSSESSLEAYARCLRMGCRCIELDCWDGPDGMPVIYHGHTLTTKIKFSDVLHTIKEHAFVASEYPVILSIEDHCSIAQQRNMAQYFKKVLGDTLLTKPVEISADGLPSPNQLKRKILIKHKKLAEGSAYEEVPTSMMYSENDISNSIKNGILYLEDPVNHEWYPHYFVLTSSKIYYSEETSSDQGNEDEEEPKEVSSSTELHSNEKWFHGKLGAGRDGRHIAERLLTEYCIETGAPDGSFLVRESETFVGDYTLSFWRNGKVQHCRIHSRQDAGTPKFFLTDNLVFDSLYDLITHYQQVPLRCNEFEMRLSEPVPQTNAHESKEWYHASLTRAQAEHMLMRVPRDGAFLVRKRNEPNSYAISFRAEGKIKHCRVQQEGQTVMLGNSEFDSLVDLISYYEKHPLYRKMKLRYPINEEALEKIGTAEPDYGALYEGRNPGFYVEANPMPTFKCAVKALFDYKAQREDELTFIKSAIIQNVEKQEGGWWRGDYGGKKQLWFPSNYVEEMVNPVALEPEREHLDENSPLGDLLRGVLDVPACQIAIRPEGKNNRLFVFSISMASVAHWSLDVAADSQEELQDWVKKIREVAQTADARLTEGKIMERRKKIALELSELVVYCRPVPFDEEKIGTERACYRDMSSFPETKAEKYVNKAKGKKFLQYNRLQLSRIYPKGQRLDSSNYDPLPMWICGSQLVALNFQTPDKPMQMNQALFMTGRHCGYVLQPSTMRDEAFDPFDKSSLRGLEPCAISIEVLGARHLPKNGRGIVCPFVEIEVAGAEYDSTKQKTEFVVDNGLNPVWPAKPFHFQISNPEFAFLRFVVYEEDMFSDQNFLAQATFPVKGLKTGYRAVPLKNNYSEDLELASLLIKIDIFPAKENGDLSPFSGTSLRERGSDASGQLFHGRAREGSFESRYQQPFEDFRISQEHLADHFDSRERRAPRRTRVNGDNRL

[9] = molecular target: T5, 1-phosphatidylinositol 4,5-bisphosphate phosphodiesterase beta-3 (Homo sapiens, UniProt Q01970); test: Fluorescence-based biochemical high throughput dose response assay to identify inhibitors of phospholipase C isozymes (PLC-B3).
T5 sequence (Q01970 whole entry): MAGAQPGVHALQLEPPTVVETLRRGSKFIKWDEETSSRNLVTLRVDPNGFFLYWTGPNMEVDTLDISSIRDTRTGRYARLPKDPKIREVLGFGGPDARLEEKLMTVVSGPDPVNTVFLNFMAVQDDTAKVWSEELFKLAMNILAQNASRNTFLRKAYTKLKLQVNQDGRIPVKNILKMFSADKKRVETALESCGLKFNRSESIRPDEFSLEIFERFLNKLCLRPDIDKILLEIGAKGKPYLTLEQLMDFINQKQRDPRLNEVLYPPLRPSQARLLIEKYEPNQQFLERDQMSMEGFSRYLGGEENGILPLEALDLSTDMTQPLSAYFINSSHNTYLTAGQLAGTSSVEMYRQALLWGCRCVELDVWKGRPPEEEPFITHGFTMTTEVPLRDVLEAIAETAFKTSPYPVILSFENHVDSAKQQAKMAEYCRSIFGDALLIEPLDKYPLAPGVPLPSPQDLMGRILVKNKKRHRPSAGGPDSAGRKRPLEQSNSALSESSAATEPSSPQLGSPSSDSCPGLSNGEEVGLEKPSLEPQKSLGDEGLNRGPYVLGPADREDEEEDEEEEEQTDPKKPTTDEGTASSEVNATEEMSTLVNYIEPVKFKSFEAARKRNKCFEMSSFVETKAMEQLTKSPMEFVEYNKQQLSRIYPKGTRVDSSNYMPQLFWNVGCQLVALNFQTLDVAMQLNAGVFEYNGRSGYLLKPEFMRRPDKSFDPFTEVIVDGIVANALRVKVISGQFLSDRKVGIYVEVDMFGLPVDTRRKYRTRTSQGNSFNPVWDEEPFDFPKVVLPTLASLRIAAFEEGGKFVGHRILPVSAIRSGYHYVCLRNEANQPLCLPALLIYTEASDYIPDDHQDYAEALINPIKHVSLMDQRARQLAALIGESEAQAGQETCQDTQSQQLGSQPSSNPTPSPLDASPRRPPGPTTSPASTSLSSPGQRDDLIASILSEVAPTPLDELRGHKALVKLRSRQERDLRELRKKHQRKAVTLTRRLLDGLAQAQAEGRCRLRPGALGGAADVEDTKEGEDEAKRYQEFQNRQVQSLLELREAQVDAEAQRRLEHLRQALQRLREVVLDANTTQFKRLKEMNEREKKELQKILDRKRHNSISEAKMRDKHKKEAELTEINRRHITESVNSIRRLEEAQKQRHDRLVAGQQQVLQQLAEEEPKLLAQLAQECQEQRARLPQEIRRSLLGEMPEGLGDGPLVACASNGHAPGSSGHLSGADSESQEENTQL

[10] = test system: Streptococcus sp. 'group A'; test: growth inhibition of control SK(-) GAS strain, dose response, counter-screen for streptokinase expression inhibitor project, luminescence, kanamycin, BacTiterGlo, confirmation (AID 1900); type: functional, organism-based
Streptokinase A = molecular target: T6, Streptokinase A (Streptococcus pyogenes serotype M1, UniProt P10520); test: S. pyogenes streptokinase expression inhibitors, potency, dose response, plasminogen activation absorbance, OD405 (AID 1914); type: functional, Streptococcus pyogenes M1 GAS;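 note: secreted streptokinase activity via plasminogen activation per viability signal from cell pellet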
T6 sequence (P10520 whole entry): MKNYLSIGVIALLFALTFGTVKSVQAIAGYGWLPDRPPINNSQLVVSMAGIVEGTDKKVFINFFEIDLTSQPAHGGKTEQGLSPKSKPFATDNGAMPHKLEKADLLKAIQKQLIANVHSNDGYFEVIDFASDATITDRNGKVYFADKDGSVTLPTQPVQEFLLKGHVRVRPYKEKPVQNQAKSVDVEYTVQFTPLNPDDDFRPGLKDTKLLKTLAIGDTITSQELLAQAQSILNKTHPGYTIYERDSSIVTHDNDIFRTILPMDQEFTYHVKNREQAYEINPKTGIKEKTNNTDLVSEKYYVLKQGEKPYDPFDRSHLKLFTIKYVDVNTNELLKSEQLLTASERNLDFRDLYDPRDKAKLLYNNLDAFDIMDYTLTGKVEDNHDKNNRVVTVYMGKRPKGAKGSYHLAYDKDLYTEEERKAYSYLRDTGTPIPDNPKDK

Streptococcus = test: Group A Streptococcus viability loss, dose response, counter-screen for streptokinase expression inhibitor project, luminescence, BacTiterGlo (AID 1915); type: functional, organism-based;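 note: potency for reduction of bacterial viability or growth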

Row | SMILES | EC50 [5] | EC50 [6] | EC50 [7] | IC50 (Major prion protein) | IC50 (cells) | IC50 [8] | IC50 [9] | further results
1 | COc1cccc(N(C(=O)c2ccco2)c2nc(-c3sc(NC(=O)c4ccco4)nc3C)cs2)c1 |  |  |  |  |  |  |  | AC50 (Paired box protein Pax-8): 2.1 µM (active); AC50 [1]: 62 µM (active)
2 | O=C(CSc1ccsc1[N+](=O)[O-])Nc1cc(F)ccc1F |  |  |  |  |  |  |  | IC50 [2]: 6.52 µM (not active); IC50 [3]: 28.4 µM (active); IC50 [4]: 2.76 µM (active); AC50 (Caspase-6): 5.74 µM (active)
3 | CCCCNC(=O)CSc1nc(CCC)nc2ccccc12 | > 79.4 µM (inactive) | > 79.4 µM (not active) | > 79.4 µM (not active) | 14.7 µM (inactive) | > 138 µM (inactive) |  |  | 
4 | Cc1cc2cc(CNC(=O)c3ccc(S(=O)(=O)N4CCCC4)cc3)ccc2n1C | 3.68 µM (active) | 8.02 µM (active) | 3.91 µM (active) | 21.5 µM (inactive) | > 138 µM (inactive) |  |  | IC50 (Protein skinhead-1): > 100 µM (inactive)
5 | CCOc1cccc(C(=O)Nc2ccc(NC(=O)c3ccccc3)c(C)c2)c1 |  |  |  |  |  | > 122 µM (inactive) | > 122 µM (inactive) | 
6 | O=C(CC1S/C(=N\c2ccccc2)N(CCc2c[nH]c3ccccc23)C1=O)Nc1ccccc1F (centres undefined) |  |  |  |  |  | > 122 µM (inactive) | > 122 µM (inactive) | EC50 [10]: 13.2 µM (active); EC50 (Streptokinase A): 14 µM (inconclusive); EC50 (Streptococcus): 43.5 µM (active)
